Reference: patent US10053443B2, “2-phenylbenzofuran derivatives, method for preparing the same and use of the same for treating inflammatory disease” (KOREA RESEARCH INSTITUTE OF BIOSCIENCE AND BIOTECHNOLOGY, priority 2014, dated 2018)
Where two headings read alike, the source gives them in different places.

Experiments:
[1] = tested on: Raw 264.7 (ATCC TIB71) cells; test: Evaluation of cell survival rate of macrophages (MTT); assay type: cell-based, mouse; conditions: Raw 264.7, 10 μM, 24 hours
Experimental: Raw 264.7 (ATCC TIB71) cells, the mouse derived macrophages', were inoculated in a 96-well plate containing DMEM (Dulbecco's modified Eagle medium; Welgene, Korea) supplemented with 10% FBS (Fetal Bovine Serum), 2 mM glutamine, penicillin (100 unit/ml), and streptomycin (100 μg/ml) at the density of 1×10^4 cells/well. The cells were cultured in 5% CO2 at 37° C. for 4 hours to attach the cells onto the plate. Next, the cells were treated with each sample at different concentrations, followed by further culture for 24 hours. To investigate the cell survival rate, 5 mg/ml of MTT (3-(4,5-dimethylthiazol-2-yl)-2,5-diphenyltetrazoliumbromide, Amresco, OH, USA) was distributed thereto (10 μl/well), followed by culture for 4 hours. Then, the supernatant was eliminated. Formazan reduced from MTT by mitochondria was dissolved in 100 μl of DMSO and then OD570 was measured. 0.2% DMSO was used for the negative control.

[2] = tested on: Nitrogen Oxide (NO) generation; test: Inhibition of nitrogen oxide (NO) generation in LPS-treated Raw 264.7 cells (Griess); assay type: cell-based, mouse; conditions: Raw 264.7, LPS 500 ng/ml, 24 hours
Experimental: Raw 264.7 (ATCC TIB71) cells were inoculated in a 96-well plate containing the same medium as used in Experimental Example 1 at the density of 1×10^5 cells/well. The cells were cultured in 5% CO2 at 37° C. for 4 hours to attach the cells onto the plate. The cells were treated with each sample at different concentrations, followed by further culture for 1 hour. […] were treated thereto at the final concentration of 500 ng/ml, followed by further culture for 24 hours. 100 μl of the supernatant was taken and transferred in a new plate, which was mixed with Griess reagent (a mixture of 1% sulfanilamide, 0.1% N-[1-naphthyl]-ethylenediamine dihydrochloride, and 5% phosphoric acid), followed by reaction for 10 minutes. Then, OD540 was measured. NO generation was quantified by using the sodium nitrite standard curve prepared from […] dissolved in the same medium at different concentrations. Considering the NO generation of the inflammation induced macrophages as 100%, the NO generation inhibition rate was calculated and presented in Table 7.

[3] = tested on: interleukin-6 (IL-6) generation; test: Inhibition of interleukin-6 (IL-6) generation in LPS-treated Raw 264.7 cells (ELISA); assay type: cell-based, mouse; conditions: Raw 264.7, LPS treated, read-out: Grades of IC50 on IL-6 generation
Experimental: Raw 264.7 cells were distributed by the same manner as described in Experimental Example <2-1>, and IL-6 included in the supernatant treated with each sample at different concentrations was measured by enzyme-linked immunosorbent assay (IL-6 ELISA kit, BD Bioscience, San Diego, Calif.).
(§1) Particularly, 10-fold diluted supernatant was distributed in a 96-well plate on which IL-6 antibody was attached, followed by adhesion for 2 hours. The supernatant remaining after the adhesion was washed with a washing buffer. The detection antibody and HRP were adhered on the washed plate for 1 hour. The remaining antibody was washed. Color development was induced by using TMB substrate. The reaction was terminated with sulfuric acid solution. Then, OD450 was measured. IL-6 in the supernatant was quantified by using the standard curve made with the standard IL-6 included in the kit. IL-6 suppression rate was calculated by measuring the same concentration that could inhibit IL-6 generation up to 50% in the LPS treated group and the results are shown in Table 8.

[4] = tested on: Tumor Necrosis Factor Alpha (TNF-alpha); test: Inhibition of TNF-alpha generation in LPS-treated Raw 264.7 cells (ELISA); assay type: cell-based; conditions: Mus musculus, RAW264.7; Raw 264.7, LPS treated; read-out: Grades of IC50 on TNF-alpha generation
Experimental: Raw 264.7 cells were distributed by the same manner as described in Experimental Example <2-1>, which were treated with the samples selected due to their high NO and IL-6 suppressing effect at different concentrations. TNF-alpha included in the supernatant was measured by enzyme-linked immunosorbent assay (TNF-alpha ELISA kit, R&D Systems, MN, USA).
as §1, with “100-fold” for “10-fold”, “TNF-alpha” for “IL-6”, “9.” for “8.”

[5] = Rheumatoid arthritis (collagen-induced) model: weight changes; assay type: in vivo, mouse; conditions: DBA/1 CIA mice, 30 mg/kg oral, FIG. 10
Experimental: Bovine type II collagen (100 μg/mouse, Hondrax, Seattle, USA) and complete Freund's adjuvant (Chondrex, Seattle, USA) were intradermally injected in the tail of 7˜9 DBA/1 male mouse. On day 21, 100 μg of bovine type II collagen was mixed with incomplete Freund's adjuvant (IFA), which was injected in the tail of each mouse once again to induce arthritis.

## COc1cc(CCCO)cc2cc(-c3cccc(F)c3)oc12 [Example 8, 3-(2-(3-fluorophenyl)-7-methoxybenzofuran-5-yl)propane-1-ol]
[1]
  Grades of cell survival rate (%, in 10 μM): A (A: 90<A≤100)
[2]
  Grades of NO generation inhibition rate (%): C (C: 15<C≤25)
[3]; Mus musculus, RAW264.7
  IC50: 40 to 50 µM

## COc1cc(CCCO)cc2cc(-c3ccc(O)c(O)c3)oc12 [Example 25, 4-(5-(3-hydroxypropyl)-7-methoxybenzofuran-2-yl)benzene-1,2-diol]
[1]
  Grades of cell survival rate (%, in 10 μM): A (A: 90<A≤100)
[2]
  Grades of NO generation inhibition rate (%): A (A: 35<A≤100)
[3]; Mus musculus, RAW264.7
  IC50: ≤ 10 µM
[4]
  IC50: 1 to 3 µM
[5]
  weight change: no weight change observed

## COc1ccc(CCc2cc(CCCO)cc(OC)c2O)cc1OC [Example 14, 2-(3,4-dimethoxyphenethyl)-4-(3-hydroxypropyl)-6-methoxyphenol]
[1]
  Grades of cell survival rate (%, in 10 μM): C (C: 70<C≤80)
[2]
  Grades of NO generation inhibition rate (%): C (C: 15<C≤25)

## COc1ccc(-c2cc3cc(CCO)cc(OC)c3o2)cc1OC [Example 20, 2-[2-(3,4-dimethoxyphenyl)-7-methoxybenzofuran-5-yl]ethanol]
[1]
  Grades of cell survival rate (%, in 10 μM): B (B: 80<B≤90)
[2]
  Grades of NO generation inhibition rate (%): A (A: 35<A≤100)
[3]; Mus musculus, RAW264.7
  IC50: 20 to 30 µM

## COc1ccc(-c2cc3cc(CCCO)cc(OC)c3o2)cc1O [Example 23, 5-(5-(3-hydroxypropyl)-7-methoxybenzofuran-2-yl)-2-methoxyphenol]
[1]
  Grades of cell survival rate (%, in 10 μM): B (B: 80<B≤90)
[2]
  Grades of NO generation inhibition rate (%): C (C: 15<C≤25)
[3]; Mus musculus, RAW264.7
  IC50: 40 to 50 µM

## COc1cccc(CCc2cc(CCCO)cc(OC)c2O)c1 [Example 17, 4-(3-hydroxypropyl)-2-methoxy-6-(3-methoxypenethyl)phenol]
[1]
  Grades of cell survival rate (%, in 10 μM): B (B: 80<B≤90)
[2]
  Grades of NO generation inhibition rate (%): C (C: 15<C≤25)
[3]
  IC50: 40 to 50 µM

## COc1ccc(-c2cc3cc(CCCO)cc(OC)c3o2)c(C)c1 [Example 2, 3-(7-methoxy-2-(4-methoxy-2-methylphenyl)benzofuran-5-yl)propane-1-ol]
[1]
  Grades of cell survival rate (%, in 10 μM): A (A: 90<A≤100)
[2]
  Grades of NO generation inhibition rate (%): A (A: 35<A≤100)
[3]; Mus musculus, RAW264.7
  IC50: ≤ 10 µM
[4]
  IC50: 3 to 5 µM

## COc1ccc(-c2cc3cc(CCCOC(C)=O)cc(OC)c3o2)cc1OC [Example 28, 3-(2-(3,4-dimethoxyphenyl)-7-methoxybenzofuran-5-yl)propyl acetate]
[1]
  Grades of cell survival rate (%, in 10 μM): A (A: 90<A≤100)
[2]
  Grades of NO generation inhibition rate (%): B (B: 25<B≤35)
[3]; Mus musculus, RAW264.7
  IC50: 20 to 30 µM
[4]
  IC50: 1 to 3 µM

## COc1cc(-c2cc3cc(CCCO)cc(OC)c3o2)cc(OC)c1O [Example 26, 4-(5-(3-hydroxypropyl)-7-methoxybenzofuran-2-yl)-2,6-dimethoxyphenol]
[1]
  Grades of cell survival rate (%, in 10 μM): A (A: 90<A≤100)
[2]
  Grades of NO generation inhibition rate (%): A (A: 35<A≤100)
[3]; Mus musculus, RAW264.7
  IC50: ≤ 10 µM
[4]
  IC50: 1 to 3 µM

## COc1cc(CCCO)cc2cc(-c3cc(F)cc(F)c3)oc12 [Example 6, 3-[2-(3,5-difluorophenyl)-7-methoxybenzofuran-5-yl]propane-1-ol]
[1]
  Grades of cell survival rate (%, in 10 μM): A (A: 90<A≤100)
[2]
  Grades of NO generation inhibition rate (%): B (B: 25<B≤35)
[3]; Mus musculus, RAW264.7
  IC50: 10 to 20 µM
[4]
  IC50: 15 to 17 µM

## COc1ccc(-c2cc3cc(CO)cc(OC)c3o2)cc1OC [Example 18, [2-(3,4-dimethoxyphenyl)-7-methoxybenzofuran-5-yl]methanol]
[1]
  Grades of cell survival rate (%, in 10 μM): A (A: 90<A≤100)
[2]
  Grades of NO generation inhibition rate (%): C (C: 15<C≤25)
[3]; Mus musculus, RAW264.7
  IC50: 40 to 50 µM

## COc1ccc(-c2cc3cc(CCCO)cc(OC)c3o2)cc1OC [Example 1, 3-[2-(3,4-dimethoxyphenyl)-7-methoxybenzofuran-5-yl]propane-1-ol]
[1]
  Grades of cell survival rate (%, in 10 μM): A (A: 90<A≤100)
[2]
  Grades of NO generation inhibition rate (%): D (D: 5<D≤15)
[3]; Mus musculus, RAW264.7
  IC50: 10 to 20 µM
[4]
  IC50: 5 to 10 µM

## COc1cc(CCCO)cc(CCc2ccc(C)cc2)c1O [Example 16, 4-(3-hydroxypropyl)-2-methoxy-6-(4-methylpenethyl)phenol]
[1]
  Grades of cell survival rate (%, in 10 μM): A (A: 90<A≤100)
[2]
  Grades of NO generation inhibition rate (%): C (C: 15<C≤25)
[3]
  IC50: 30 to 40 µM

## COc1cc(CCCO)cc2cc(-c3cccc(C)c3)oc12 [Example 3, 3-(7-methoxy-2-m-tolylbenzofuran-5-yl)propane-1-ol]
[1]
  Grades of cell survival rate (%, in 10 μM): A (A: 90<A≤100)
[2]
  Grades of NO generation inhibition rate (%): A (A: 35<A≤100)
[3]; Mus musculus, RAW264.7
  IC50: 40 to 50 µM

## COc1ccc(-c2cc3cc(CCCO)cc(OC)c3o2)cc1 [Example 7, 3-(7-methoxy-2-(4-methoxyphenyl)benzofuran-5-yl)propane-1-ol]
[1]
  Grades of cell survival rate (%, in 10 μM): A (A: 90<A≤100)
[2]
  Grades of NO generation inhibition rate (%): D (D: 5<D≤15)
[3]; Mus musculus, RAW264.7
  IC50: 40 to 50 µM

## COc1cc(CCCO)cc2cc(-c3ccc(N(C)C)cc3)oc12 [Example 9, 3-(2-(4-(dimethylamino)phenyl)-7-methoxybenzofuran-5-yl)propane-1-ol]
[1]
  Grades of cell survival rate (%, in 10 μM): A (A: 90<A≤100)
[2]
  Grades of NO generation inhibition rate (%): C (C: 15<C≤25)
[3]; Mus musculus, RAW264.7
  IC50: 40 to 50 µM

## COc1cc(CCCO)cc2cc(-c3cc(O)cc(O)c3)oc12 [Example 24, 5-(5-(3-hydroxypropyl)-7-methoxybenzofuran-2-yl)benzene-1,3-diol]
[1]
  Grades of cell survival rate (%, in 10 μM): A (A: 90<A≤100)
[2]
  Grades of NO generation inhibition rate (%): A (A: 35<A≤100)
[3]; Mus musculus, RAW264.7
  IC50: 10 to 20 µM
[4]
  IC50: 5 to 10 µM

## COc1cccc(-c2cc3cc(CCCO)cc(OC)c3o2)c1 [Example 5, 3-(7-methoxy-2-(3-methoxyphenyl)benzofuran-5-yl)propane-1-ol]
[1]
  Grades of cell survival rate (%, in 10 μM): A (A: 90<A≤100)
[2]
  Grades of NO generation inhibition rate (%): C (C: 15<C≤25)
[3]; Mus musculus, RAW264.7
  IC50: 40 to 50 µM

## COc1ccc(-c2cc3cc(CCCO)cc(O)c3o2)cc1OC [Example 27, 2-(3,4-dimethoxyphenyl)-5-(3-hydroxypropyl)benzofuran-7-ol]
[1]
  Grades of cell survival rate (%, in 10 μM): B (B: 80<B≤90)
[2]
  Grades of NO generation inhibition rate (%): D (D: 5<D≤15)
[3]; Mus musculus, RAW264.7
  IC50: 20 to 30 µM

## COc1cc(-c2cc3cc(CCCO)cc(OC)c3o2)ccc1O [Example 22, 4-(5-(3-hydroxypropyl)-7-methoxybenzofuran-2-yl)-2-methoxyphenol]
[1]
  Grades of cell survival rate (%, in 10 μM): A (A: 90<A≤100)
[2]
  Grades of NO generation inhibition rate (%): A (A: 35<A≤100)
[3]; Mus musculus, RAW264.7
  IC50: ≤ 10 µM
[4]
  IC50: 3 to 5 µM
